{"source": "PubChem BioAssay AID1963985", "about": "(Molecular Pharmacology Branch, DTP, NCI, 2024);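 further: spheroids exposed to agents for seven days before readout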;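 on viability, T/C: percent of vehicle DMSO control viability so 100% = untreated growth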", "tested_on": "252836-082-R-J2-PDC tumor spheroids, viability", "assay": "Anticancer human tumor 252836-082-R-J2-PDC patient-derived head and neck squamous cell carcinoma cell line growth inhibition [PI3K]", "conditions": "spheroids with HUVEC and MSC; for viability, T/C: stronger effect = lower value", "source_text": "Combinatorial screen of targeted agents with the PI3K inhibitors inavolisib, alpelisib, duvelisib, and copanlisib in multi-cell type tumor spheroids\nA high-throughput screen of multi-cell type tumor spheroids was designed to identify active combinations of targeted small molecules and PI3K pathway inhibitors. Complex spheroids include a stromal component modeled by human endothelial cells (HUVEC) and fibroblasts modeled by human mesenchymal stem cells (MSCs). The concentration ranges selected for each drug and investigational agent were based upon clinically achievable concentrations if the clinical Cmax of the agent was known.\nCompounds. The drugs and investigational agents: inavolisib (NSC800729), alpelisib (NSC765974), duvelisib (NSC772469), copanlisib (NSC816437), ipatasertib (NSC767898), afuresertib (NSC778305), talazoparib (NSC767125), sapanisertib (NSC764658), selumetinib (NSC741078), tovorafenib (DAY101, NSC766906), vemurafenib (NSC761431), ravoxertinib (NSC781343), sotorasib (NSC818433), MRTX1133 (NSC 836407), abemaciclib (NSC 768073), palbociclib (NSC758247), venetoclax (NSC 766270), SY5609 (NSC837396), enzalutamide (NSC755605), and darolutamide (NSC825331), were obtained from the National Cancer Institute (NCI) Developmental Therapeutics Program Chemical Repository. The FDA-approved anticancer drug set is available from the NCI Developmental Therapeutics Program. […] The stock solutions were prepared in dimethyl sulfoxide (DMSO, Sigma-Aldrich, St. Louis, MO, cat. D2650) at 800-fold the tested concentration and stored at -70 degrees C prior to their use. All drugs and investigational agents were tested over a range starting from a high concentration at or near the clinical Cmax and decreasing in half-log increments. If the clinical Cmax for an agent had not been determined, the highest concentration tested was 10 microM.\nCell Culture. All cells were maintained in an incubator at 37 degrees C and 5% CO2 with 95% humidity. The PDC lines were cultured according to standard operating procedures established by the NCI PDMR (https://pdmr.cancer.gov/sops/default.htm). All PDCs were thawed and cultured in Matrigel-coated flasks prepared with a working solution of 1X Ham's F-12 nutrient mix, without supplementation (Invitrogen, Waltham, MA, cat. 11765054), 100 U/mL penicillin-streptomycin (Invitrogen, cat. 15140122), and 2.5% Matrigel (Corning Inc., Corning, NY, cat. 354248) for the first three passages. The 354836-022-R-J1-PDC, 475296-252-R-J1-PDC, and 997726-040-R-J2-PDC lines were cultured in 6A media, which includes advanced DMEM/F-12 (Thermo Fisher Scientific, cat. 12634028), 10 mM HEPES (Thermo Fisher Scientific, cat. 15630080), 1X GlutaMAX supplement (Thermo Fisher Scientific, cat. 35050061), 0.1 mg/mL primocin (InvivoGen, San Diego, CA, cat. ant-pm-2), 10% defined fetal bovine serum, heat inactivated (HyClone Laboratories Inc., Logan, UT, cat. SH30070.03HI), 50% L-WRN conditioned media (ATCC, cat. CRL-3276), 1.25 mM N-Acetyl-L-cysteine (Sigma-Aldrich, cat. A9165), 10 mM nicotinamide (Sigma-Aldrich, cat. N0636), 1X B-27 supplement (Thermo Fisher Scientific, cat. 17504044), 1X N-2 supplement (Thermo Fisher Scientific, cat. 17502048), and 10 microM Y-27632 dihydrochloride (Tocris Bioscience, Bristol, United Kingdom, cat. 1254). The 624824-186-R-J2-PDC line was cultured in 6C/Colon 1B media, which includes all 6A media components plus 50 ng/mL human EGF recombinant protein (Thermo Fisher Scientific, cat. PHG0311). […]", "data": [{"smiles": "CC(C)n1nc(-c2ccc3oc(N)nc3c2)c2c(N)ncnc21", "note": "+ COc1c(OCCCN2CCOCC2)ccc2c3n(c(=NC(=O)c4cnc(N)nc4)nc12)CCN3", "values": [{"measurement": "IC50", "setting": "curve of first compound, second compound 0.00316 µM", "result": 19, "unit": "nM"}, {"measurement": "IC50", "setting": "curve of first compound, second compound 0.01 µM", "result": 16.5, "unit": "nM"}, {"measurement": "IC50", "setting": "curve of first compound, second compound 0.0316 µM", "result": 3.33, "unit": "nM"}, {"measurement": "IC50", "setting": "curve of first compound, second compound 0.1 µM", "result": "< 0.316", "unit": "nM"}, {"measurement": "IC50", "setting": "curve of first compound, second compound 0.316 µM", "result": "< 0.316", "unit": "nM"}, {"measurement": "IC50", "setting": "curve of first compound, second compound 1 µM", "result": "< 0.316", "unit": "nM"}, {"measurement": "viability, T/C", "setting": "second compound 0.00316 µM, first compound 0.000316 µM", "result": 81.7, "unit": "%"}, {"measurement": "viability, T/C", "setting": "second compound 0.00316 µM, first compound 0.001 µM", "result": 81.9, "unit": "%"}, {"measurement": "viability, T/C", "setting": "second compound 0.00316 µM, first compound 0.00316 µM", "result": 74.9, "unit": "%"}, {"measurement": "viability, T/C", "setting": "second compound 0.00316 µM, first compound 0.01 µM", "result": 58.1, "unit": "%"}, {"measurement": "viability, T/C", "setting": "second compound 0.00316 µM, first compound 0.0316 µM", "result": 43.1, "unit": "%"}, {"measurement": "viability, T/C", "setting": "second compound 0.00316 µM, first compound 0.1 µM", "result": 20.8, "unit": "%"}, {"measurement": "viability, T/C", "setting": "second compound 0.01 µM, first compound 0.000316 µM", "result": 78.7, "unit": "%"}, {"measurement": "viability, T/C", "setting": "second compound 0.01 µM, first compound 0.001 µM", "result": 73.5, "unit": "%"}, {"measurement": "viability, T/C", "setting": "second compound 0.01 µM, first compound 0.00316 µM", "result": 74.9, "unit": "%"}, {"measurement": "viability, T/C", "setting": "second compound 0.01 µM, first compound 0.01 µM", "result": 57.8, "unit": "%"}, {"measurement": "viability, T/C", "setting": "second compound 0.01 µM, first compound 0.0316 µM", "result": 38.5, "unit": "%"}, {"measurement": "viability, T/C", "setting": "second compound 0.01 µM, first compound 0.1 µM", "result": 20.5, "unit": "%"}, {"measurement": "viability, T/C", "setting": "second compound 0.0316 µM, first compound 0.000316 µM", "result": 58.3, "unit": "%"}, {"measurement": "viability, T/C", "setting": "second compound 0.0316 µM, first compound 0.001 µM", "result": 58.4, "unit": "%"}, {"measurement": "viability, T/C", "setting": "second compound 0.0316 µM, first compound 0.00316 µM", "result": 48.4, "unit": "%"}, {"measurement": "viability, T/C", "setting": "second compound 0.0316 µM, first compound 0.01 µM", "result": 42.1, "unit": "%"}, {"measurement": "viability, T/C", "setting": "second compound 0.0316 µM, first compound 0.0316 µM", "result": 31.4, "unit": "%"}, {"measurement": "viability, T/C", "setting": "second compound 0.0316 µM, first compound 0.1 µM", "result": 15.3, "unit": "%"}, {"measurement": "viability, T/C", "setting": "second compound 0.1 µM, first compound 0.000316 µM", "result": 30.4, "unit": "%"}, {"measurement": "viability, T/C", "setting": "second compound 0.1 µM, first compound 0.001 µM", "result": 34.8, "unit": "%"}, {"measurement": "viability, T/C", "setting": "second compound 0.1 µM, first compound 0.00316 µM", "result": 33.1, "unit": "%"}, {"measurement": "viability, T/C", "setting": "second compound 0.1 µM, first compound 0.01 µM", "result": 28.1, "unit": "%"}, {"measurement": "viability, T/C", "setting": "second compound 0.1 µM, first compound 0.0316 µM", "result": 18.3, "unit": "%"}, {"measurement": "viability, T/C", "setting": "second compound 0.1 µM, first compound 0.1 µM", "result": 9.85, "unit": "%"}, {"measurement": "viability, T/C", "setting": "second compound 0.316 µM, first compound 0.000316 µM", "result": 17.8, "unit": "%"}, {"measurement": "viability, T/C", "setting": "second compound 0.316 µM, first compound 0.001 µM", "result": 18.9, "unit": "%"}, {"measurement": "viability, T/C", "setting": "second compound 0.316 µM, first compound 0.00316 µM", "result": 12.1, "unit": "%"}, {"measurement": "viability, T/C", "setting": "second compound 0.316 µM, first compound 0.01 µM", "result": 9.92, "unit": "%"}, {"measurement": "viability, T/C", "setting": "second compound 0.316 µM, first compound 0.0316 µM", "result": 8.75, "unit": "%"}, {"measurement": "viability, T/C", "setting": "second compound 0.316 µM, first compound 0.1 µM", "result": 2.66, "unit": "%"}, {"measurement": "viability, T/C", "setting": "second compound 1 µM, first compound 0.000316 µM", "result": 4.87, "unit": "%"}, {"measurement": "viability, T/C", "setting": "second compound 1 µM, first compound 0.001 µM", "result": 3.85, "unit": "%"}, {"measurement": "viability, T/C", "setting": "second compound 1 µM, first compound 0.00316 µM", "result": 4.39, "unit": "%"}, {"measurement": "viability, T/C", "setting": "second compound 1 µM, first compound 0.01 µM", "result": 3.18, "unit": "%"}, {"measurement": "viability, T/C", "setting": "second compound 1 µM, first compound 0.0316 µM", "result": 3.53, "unit": "%"}, {"measurement": "viability, T/C", "setting": "second compound 1 µM, first compound 0.1 µM", "result": 2.06, "unit": "%"}]}, {"smiles": "COc1c(OCCCN2CCOCC2)ccc2c3n(c(=NC(=O)c4cnc(N)nc4)nc12)CCN3", "values": [{"measurement": "viability, T/C", "setting": "compound 0.00316 µM", "result": "96.6% [middle of 8 runs]"}, {"measurement": "viability, T/C", "setting": "compound 0.01 µM", "result": "80.7% [middle of 8 runs]"}, {"measurement": "viability, T/C", "setting": "compound 0.0316 µM", "result": "59.6% [middle of 8 runs]"}, {"measurement": "viability, T/C", "setting": "compound 0.1 µM", "result": "36.6% [middle of 8 runs]"}, {"measurement": "viability, T/C", "setting": "compound 0.316 µM", "result": "15.3% [middle of 7 runs]"}, {"measurement": "viability, T/C", "setting": "compound 1 µM", "result": "4.26% [middle of 8 runs]"}, {"measurement": "IC50", "setting": "compound alone, run of 06/13/2023", "result": "47.6 nM [middle of 8 runs]"}]}]}
